Assay results: PMC12169608, “Peptidomimetic Phenoxymethyl Ketone Warheads as Potent Dual-Mode Inhibitors against SARS-CoV‑2 M^pro and Cathepsin” (Journal of Medicinal Chemistry, 2025)
pEC50: −log10 of the molar value.

Each compound was assayed against SARS-CoV-2 main protease (Mpro) (Severe acute respiratory syndrome coronavirus 2, UniProt P0DTD1) (assay: cell-based).

Compound | pEC50 | M^pro reporter assay pEC50
COc1cccc2[nH]c(C(=O)N[C@@H](Cc3cccc(F)c3)C(=O)N[C@@H](C[C@@H]3CCNC3=O)C(=O)COc3c(F)c(F)c(CO)c(F)c3F)cc12 [compound 1, N-((S)-3-(3-Fluorophenyl)-1-oxo-1-(((S)-3-oxo-1-((S)-2-oxopyrrolidin-3-yl)-4-(2,3,5,6-tetrafluoro-4-(hydroxymethyl)phenoxy)butan-2-yl)amino)propan-2-yl)-4-methoxy-1H-indole-2-carboxamide] | 6.98 | 
COc1cccc2[nH]c(C(=O)N[C@H](Cc3cccc(F)c3)C(=O)N[C@@H](C[C@@H]3CCNC3=O)C(=O)COc3c(F)c(F)c(CO)c(F)c3F)cc12 [compound 2, N-((R)-3-(3-Fluorophenyl)-1-oxo-1-(((S)-3-oxo-1-((S)-2-oxopyrrolidin-3-yl)-4-(2,3,5,6-tetrafluoro-4-(hydroxymethyl)phenoxy)butan-2-yl)amino)propan-2-yl)-4-methoxy-1H-indole-2-carboxamide] | 4.73 | 
CCCCCCCCCCCCCCCC(=O)N[C@@H](Cc1cccc(F)c1)C(=O)N[C@@H](C[C@@H]1CCNC1=O)C(=O)COc1c(F)c(F)c(CO)c(F)c1F [compound 4, N-((S)-3-(3-Fluorophenyl)-1-oxo-1-(((S)-3-oxo-1-((S)-2-oxopyrrolidin-3-yl)-4-(2,3,5,6-tetrafluoro-4-(hydroxymethyl)phenoxy)butan-2-yl)amino)propan-2-yl)palmitamide] | < 4.30 | 
O=C(N[C@@H](Cc1c[nH]c2ccccc12)C(=O)N[C@@H](C[C@@H]1CCNC1=O)C(=O)COc1c(F)c(F)c(CO)c(F)c1F)c1cc2ccccc2[nH]1 [compound 5, N-((S)-3-(1H-Indol-3-yl)-1-oxo-1-(((S)-3-oxo-1-((S)-2-oxopyrrolidin-3-yl)-4-(2,3,5,6-tetrafluoro-4-(hydroxymethyl)phenoxy)butan-2-yl)amino)propan-2-yl)-1H-indole-2-carboxamide] | 5.54 | 
COc1cccc2[nH]c(C(=O)N[C@@H](Cc3cccc(F)c3)C(=O)N[C@@H](C[C@@H]3CCNC3=O)C(=O)COc3c(F)c(F)c(C(C)O)c(F)c3F)cc12 (stereo partly drawn) [compound 8, N-((2S)-3-(3-Fluorophenyl)-1-oxo-1-(((2S)-3-oxo-1-((S)-2-oxopyrrolidin-3-yl)-4-(2,3,5,6-tetrafluoro-4-(1-hydroxyethyl)phenoxy)butan-2-yl)amino)propan-2-yl)-4-methoxy-1H-indole-2-carboxamide] | 8.06 | 
COc1cccc2[nH]c(C(=O)N[C@@H](Cc3cccc(F)c3)C(=O)N[C@@H](C[C@@H]3CCNC3=O)C(=O)COc3c(F)c(F)c(C(C)(C)O)c(F)c3F)cc12 [compound 10, N-((S)-3-(3-Fluorophenyl)-1-oxo-1-(((S)-3-oxo-1-((S)-2-oxopyrrolidin-3-yl)-4-(2,3,5,6-tetrafluoro-4-(2-hydroxypropan-2-yl)phenoxy)butan-2-yl)amino)propan-2-yl)-4-methoxy-1H-indole-2-carboxamide] | 8.33 | 
COc1cccc2[nH]c(C(=O)N[C@@H](Cc3cccc(F)c3)C(=O)N[C@@H](C[C@@H]3CC(=O)NC3=O)C(=O)COc3c(F)c(F)c(C(C)(C)O)c(F)c3F)cc12 [compound 11] | 5.91 | 
COc1cccc2[nH]c(C(=O)N[C@@H](Cc3cccc(F)c3)C(=O)N[C@@H](C[C@@H]3CCNC3=O)C(=O)COc3c(F)c(F)c(F)c(F)c3F)cc12 [compound 16, reference compound] | > 8.52 | 
N-((S)-3-(3-Fluorophenyl)-1-oxo-1-(((S)-2-oxo-5-(5-oxo-1,5-dihydro-4H-1,2,4-triazol-4-yl)-1-(2,3,5,6-tetrafluoro-4-(2-hydroxypropan-2-yl)phenoxy)pentan-3-yl)amino)propan-2-yl)-4-methoxy-1H-indole-2-carboxamide [compound 12] |  | 4.66
